Data from publication PMC5216056 (Nature Communications, 2017).
Where two headings read alike, the source gives them in different places.

Assays:
PPARα (h) = biological target: T1, PPARα (h) (Homo sapiens, UniProt Q07869); assay: CEREP panel; type: binding; conditions: for inhibition at 10 µM: read-out: % inhibition PPARα (h)
T1 construct: CEREP (contract assay)
T1 sequence (Q07869 1-468): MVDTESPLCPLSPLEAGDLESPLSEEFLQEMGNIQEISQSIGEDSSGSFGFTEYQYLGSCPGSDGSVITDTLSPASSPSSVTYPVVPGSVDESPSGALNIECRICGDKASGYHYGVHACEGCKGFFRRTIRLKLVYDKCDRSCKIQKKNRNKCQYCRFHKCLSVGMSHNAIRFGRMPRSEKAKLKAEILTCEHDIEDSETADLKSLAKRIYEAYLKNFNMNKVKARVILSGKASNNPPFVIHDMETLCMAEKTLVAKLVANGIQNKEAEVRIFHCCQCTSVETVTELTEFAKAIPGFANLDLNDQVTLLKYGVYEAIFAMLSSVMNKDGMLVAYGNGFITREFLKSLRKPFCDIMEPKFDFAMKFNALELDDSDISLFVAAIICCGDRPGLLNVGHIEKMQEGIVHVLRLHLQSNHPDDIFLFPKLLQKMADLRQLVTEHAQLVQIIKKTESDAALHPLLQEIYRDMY

hCB2R = hCB2R (Homo sapiens, UniProt P34972); assay: cell-based; type: cell-based; design: expressed in transfected cells; host or cells: Flp-In-293 (Invitrogen #R750-07), pcDNA5/FRT; conditions: for Emax: read-out: Emax ± SEM cAMP hCB2R
MAGL = biological target: T2, MAGL (Homo sapiens, UniProt Q99685); assay: Biochemical MAGL activity assay; conditions: for inhibition at 10 µM: read-out: MAGL % inhibition at 10 µM ± SD
T2 construct: expressed in transfected cells; host or cells: HEK293T (transient), membrane preparation
T2 sequence (Q99685 1-303): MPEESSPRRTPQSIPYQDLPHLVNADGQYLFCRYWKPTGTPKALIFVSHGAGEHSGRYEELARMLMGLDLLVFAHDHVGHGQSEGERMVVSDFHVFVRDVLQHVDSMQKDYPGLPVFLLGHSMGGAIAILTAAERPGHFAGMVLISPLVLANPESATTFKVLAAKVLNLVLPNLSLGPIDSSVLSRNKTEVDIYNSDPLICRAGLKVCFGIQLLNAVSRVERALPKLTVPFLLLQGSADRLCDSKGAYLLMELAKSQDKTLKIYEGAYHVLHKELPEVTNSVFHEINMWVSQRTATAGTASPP
Method: Cell culture and membrane preparation were performed as previously described. HEK293T cells (source: Dutch Cancer Institute) were grown in DMEM with stable glutamine and phenolred (PAA), 10% New Born Calf serum, penicillin and streptomycin. Cells were passaged every 2–3 days by resuspending in medium and seeding them to appropriate confluence. Membranes were prepared from transiently transfected HEK293T cells. One day prior to transfection 10^7 cells were seeded in a 15 cm petri dish. Cells were transfected by the addition of a 3:1 mixture of polyethyleneimine (60 μg) and plasmid DNA (20 μg) in 2 ml serum-free medium. The medium was refreshed after 24 h, and after 72 h the cells were harvested by suspending them in 20 ml medium. The suspension was centrifuged for 10 min at 1000, rpm, and the supernatant was removed. The cell pellet was stored at −80 °C until use. Cell pellets were thawed on ice and suspended in lysis buffer A (20 mM HEPES, 2 mM DTT, 0.25 M sucrose, 1 mM MgCl2, […] Benzonase). The suspension was homogenized by polytrone (3 × 7 s) and incubated for 30 min on ice. The suspension was subjected to ultracentrifugation (100,000 × g, 30 min, 4 °C, Beckman Coulter, Type Ti70 rotor) to yield the cytosolic fraction in the supernatant and the membrane fraction as a pellet. The pellet was resuspended in lysis buffer B (20 mM HEPES, 2 mM DTT). The protein concentration was determined with Quick Start Bradford assay (Biorad). The protein fractions were diluted to a total protein concentration of 1 mg ml^−1 and stored in small aliquots at −80 °C until use.
Percentage of inhibition of reference ligands was determined in comparison with an untreated control. […] Fluorescence was measured in 5 min intervals for 60 min.

hCB1R = biological target: T3, hCB1R (Homo sapiens, UniProt P21554); assay: cell-based; type: cell-based
T3 construct: host or cells: CHO

hABHD12 = biological target: T4, hABHD12 (Homo sapiens, UniProt Q8N2K0); assay: ABHD12 activity; type: biochemical; conditions: for ABHD12 % inhibition: single point
T4 construct: expressed in transfected cells
T4 sequence (Q8N2K0 1-398): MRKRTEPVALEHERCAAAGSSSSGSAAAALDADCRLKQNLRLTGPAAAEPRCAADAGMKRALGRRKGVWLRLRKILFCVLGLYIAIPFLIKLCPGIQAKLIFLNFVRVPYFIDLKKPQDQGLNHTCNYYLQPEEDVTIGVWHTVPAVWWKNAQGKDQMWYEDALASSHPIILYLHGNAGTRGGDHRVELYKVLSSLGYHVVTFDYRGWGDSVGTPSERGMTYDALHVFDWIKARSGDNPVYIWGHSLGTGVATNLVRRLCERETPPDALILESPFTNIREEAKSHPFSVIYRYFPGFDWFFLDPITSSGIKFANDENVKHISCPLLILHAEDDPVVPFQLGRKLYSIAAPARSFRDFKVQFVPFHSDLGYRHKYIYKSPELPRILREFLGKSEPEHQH
Source text: HEK293T cells were obtained from American Type Culture Collection (ATCC, Manassas, VA, USA). Lipofectamine 2000 was obtained from Life Technologies (Carlsbad, CA, USA) and geneticin from InvivoGen. Cell culture medium, FBS, and cell culture supplements were from Invitrogen (Carlsbad, CA, USA). pCMV6-AC-hABHD6 and pCMV6-XL4-hABHD12 were a kind gift from Prof Jarmo T. Laitinen. hABHD12 sequence was subsequently inserted in a pcDNA3.1 plasmid in order to generate a stable cell line. The effect of CB2R ligands on ABHD6 and ABHD12 hydrolytic activity was determined using cell homogenate from hABHD6 and hABHD12 overexpressing HEK293T cells (40 μg total protein per condition). Samples were pre-incubated with the compounds (10 μM in the screening assay and concentrations in the range 1 nM—50 μM for the dose-response curves) in […] (pH=7.6) buffer containing 0.1%(w/v) BSA. DMSO was used as vehicle control and WWL70 10 μM or THL 20 μM as positive controls. [^3H]-2-OG (10 μM final concentration) was added and after incubation of 5 min at 37 °C, the reaction was stopped by the addition of 400 μl of ice-cold CHCl3:MeOH (1:1). The samples were vortex and centrifuged (16,100g 10 min 4 °C). Aliquots (200 μl) of the aqueous phase were assayed for tritium content by liquid scintillation spectroscopy. The values obtained for each measurement were corrected for non-specific hydrolysis (non-ABHD6 mediated) by subtracting the signal obtained in the hydrolysis of [^3H]- 2-OG by non-transfected HEK293T.

[1] = read-out: ABHD12 IC50 (95% CI), full dose-response
[2] = antagonists in presence of EC80 of CP55940

T3 sequence (P21554 whole entry): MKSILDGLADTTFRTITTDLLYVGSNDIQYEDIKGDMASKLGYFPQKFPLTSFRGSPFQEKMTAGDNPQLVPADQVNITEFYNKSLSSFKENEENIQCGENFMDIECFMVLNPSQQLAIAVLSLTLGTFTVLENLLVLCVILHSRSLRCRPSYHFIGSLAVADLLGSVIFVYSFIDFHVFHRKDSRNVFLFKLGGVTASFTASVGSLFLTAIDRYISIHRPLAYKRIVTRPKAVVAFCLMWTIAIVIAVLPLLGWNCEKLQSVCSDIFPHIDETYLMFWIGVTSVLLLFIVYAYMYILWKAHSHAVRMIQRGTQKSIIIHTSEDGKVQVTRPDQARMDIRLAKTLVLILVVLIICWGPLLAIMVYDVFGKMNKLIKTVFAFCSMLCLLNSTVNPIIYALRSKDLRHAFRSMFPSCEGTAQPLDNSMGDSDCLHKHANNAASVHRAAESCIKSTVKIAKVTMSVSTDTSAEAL
Sequence of hCB2R (P34972 whole entry): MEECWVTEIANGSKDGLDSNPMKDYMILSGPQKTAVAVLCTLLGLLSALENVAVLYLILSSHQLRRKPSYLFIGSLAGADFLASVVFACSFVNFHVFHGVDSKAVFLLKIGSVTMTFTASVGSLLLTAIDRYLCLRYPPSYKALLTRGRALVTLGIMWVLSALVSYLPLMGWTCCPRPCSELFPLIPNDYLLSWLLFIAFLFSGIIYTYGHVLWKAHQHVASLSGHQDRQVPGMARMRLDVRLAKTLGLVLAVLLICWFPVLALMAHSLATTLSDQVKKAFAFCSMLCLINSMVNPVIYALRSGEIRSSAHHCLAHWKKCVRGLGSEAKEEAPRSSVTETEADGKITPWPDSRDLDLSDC

Molecule	% inhibition PPARα (h) (PPARα (h); 10 µM)	Emax ± SEM cAMP hCB2R (hCB2R)	pEC50 ± SEM cAMP hCB2R (hCB2R)	MAGL % inhibition at 10 µM ± SD (MAGL)	pEC50 ± SEM GIRK hCB1R (hCB1R)	inhibition at 10 µM (MAGL)	ABHD12 % inhibition (hABHD12; 10 5 µM [sic])	further results
CCCC(C)(C)c1ccc2c(c1)OC(C)(C)[C@@H]1CC=C(C)C[C@@H]21 [JWH133]	-25%	98 ± 1	8.38 ± 0.09	-20 ± 5%	< 5			Emax ± SEM GIRK hCB1R (hCB1R): 5 ± 1
CCCCC/C=C\C/C=C\C/C=C\C/C=C\CCCC(=O)NCCO [Anandamide, N-arachidonoylethanolamine]						-2 ± 19%		Emax (hCB2R): 87 ± 7%
CCCn1c(C)c(C(=O)c2cccc3ccccc23)c2ccccc21 [JWH015]	-16%			0 ± 17%				
COc1ccc(C(=O)c2c(C)n(CCN3CCOCC3)c3cc(I)ccc23)cc1 [AM630]	-17%	-152 ± 13	7.56 ± 0.05	4 ± 16%			< 25%	
CCCCCCC(C)(C)c1ccc([C@@H]2C[C@H](O)CC[C@H]2CCCO)c(O)c1 [CP55940]						5 ± 16%		
CN1CCCC[C@@H]1Cn1cc(C(=O)c2cc([N+](=O)[O-])ccc2I)c2ccccc21 [(R)-AM1241]		65 ± 2	8.76 ± 0.18	-2 ± 18%	5.00 ± 0.1		< 25%	CB2R Selectivity cAMP (human) (hCB2R; 10^(pEC50 CB2R-pEC50 CB1R)): 391 fold; Emax ± SEM GIRK hCB1R (hCB1R; normalized to CP55940): 51 ± 3%
CN1CCCC[C@H]1Cn1cc(C(=O)c2cc([N+](=O)[O-])ccc2I)c2ccccc21 [(S)-AM1241]	-18%	78 ± 1	7.40 ± 0.11	-4 ± 18%	< 5		< 25%	Emax ± SEM GIRK hCB1R (hCB1R; normalized to CP55940): 19 ± 3%
CCCCC/C=C\C/C=C\C/C=C\C/C=C\CCCC(=O)OC(CO)CO [2-AG, 2-arachidonoyl glycerol]						3 ± 15%		Emax (hCB2R): 94 ± 1%; Emax (hCB1R; AtT20; read-out: Emax ± SEM GIRK hCB1R): 100 ± 11%
Cc1c(C(=O)c2cccc3ccccc23)c2cccc3c2n1[C@H](CN1CCOCC1)CO3 [WIN55212-2]	-4%			3 ± 18%			< 50%	
SR144528	-14%			3 ± 16%				ABHD12 % inhibition (hABHD12): < 25%; Emax ± SEM cAMP hCB2R (hCB2R; normalized to 10 µM CP55940): -151 ± 10%; Emax ± SEM GIRK hCB1R (hCB1R): 9 ± 4
Cc1ccc2c(c1)Cc1c(C(=O)NN3CCCCC3)nn(-c3ccc(Cl)cc3Cl)c1-2 [Gp-1a]	-9%			-1 ± 15%	5.26 ± 0.1			IC50 (hABHD12; [1]): 800 nM; pEC50 ± SEM cAMP hCB2R (hCB2R; [2]): 7.52 ± 0.14; Emax ± SEM cAMP hCB2R (hCB2R; normalized to 10 µM CP55940): -85 ± 10%
CN1CCCCC1Cn1cc(C(=O)c2cc([N+](=O)[O-])ccc2I)c2ccccc21 (racemic) [(rac)-AM1241]		67 ± 3	8.49± 0.08	-2 ± 17%	< 5			Emax ± SEM GIRK hCB1R (hCB1R): 36 ± 4
CCCCCCC(C)(C)c1cc(OC)c(C2=C[C@H]3CC[C@]2(CO)C3(C)C)c(OC)c1 [HU910]	-28%			20 ± 12%	< 5		< 25%	pEC50 ± SEM cAMP hCB2R (hCB2R; [2]): 8.41 ± 0.13; Emax ± SEM cAMP hCB2R (hCB2R; normalized to 10 µM CP55940): 98 ± 1%; Emax ± SEM GIRK hCB1R (hCB1R; normalized to CP55940): 7 ± 5%
Cc1c(C(=O)NN2CCCCC2)nn(-c2ccc(Cl)cc2Cl)c1-c1ccc(I)cc1 [AM251]		-175 ± 19		0 ± 16%				IC50 (hABHD12; [1]): 1600 nM
CCCCCCC(C)(C)c1cc(OC)c([C@@H]2C=C(CO)[C@@H]3C[C@H]2C3(C)C)c(OC)c1 [HU308]						7 ± 13%		inhibition at 10 µM (PPARα (h)): -21%; Emax (hCB2R): 98 ± 1%; EC50 (hCB1R): > 10 µM; Emax (hCB1R; AtT20, read-out: Emax ± SEM GIRK hCB1R): 15 ± 10%
Cc1c(C(=O)NN2CCCCC2)nn(-c2ccc(Cl)cc2Cl)c1-c1ccc(Cl)cc1 [SR141716A]						4 ± 18%		IC50 (hABHD12): 6100 nM; inhibition at 10 µM (PPARα (h); 10 µM): -5%
